The target in the assay is T1, hGIP-R (Homo sapiens, UniProt P48546).
T1 construct: expressed in transfected cells; host or cells: HEK-293 clonal cell lines
T1 sequence (P48546 22-466): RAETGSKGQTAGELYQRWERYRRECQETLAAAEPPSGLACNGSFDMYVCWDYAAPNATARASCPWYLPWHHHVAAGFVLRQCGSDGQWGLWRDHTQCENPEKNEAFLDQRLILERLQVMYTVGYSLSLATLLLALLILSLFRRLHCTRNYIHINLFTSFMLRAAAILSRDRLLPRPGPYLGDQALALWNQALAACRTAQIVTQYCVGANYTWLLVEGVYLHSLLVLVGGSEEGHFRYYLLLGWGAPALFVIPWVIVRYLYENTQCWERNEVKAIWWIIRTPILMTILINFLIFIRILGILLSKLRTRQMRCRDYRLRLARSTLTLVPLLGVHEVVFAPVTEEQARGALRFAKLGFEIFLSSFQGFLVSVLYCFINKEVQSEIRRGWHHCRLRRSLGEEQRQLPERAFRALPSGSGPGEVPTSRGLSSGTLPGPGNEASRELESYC
Kind of assay: Functional hGIP-R Assay (cAMP formation, HTRF). In kind it is cell-based. The note with it: for Emax: cAMP efficacy, percent of maximal response to GIP(1-42)OH, 37° C., 0.1% bovine casein, arithmetic mean ± SEM; for EC50: cAMP potency, HEK-293 cells expressing hGIP-R, incubated at 37° C. in the presence of 0.1% bovine casein, geometric mean, read-out: Human GIP-R EC50, nM (SEM, n). An outline of the steps: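 Relative EC50 and Emax came from four-parameter logistic fits of cAMP as a percent of the human GIP (1-42) OH maximal response. The cAMP was measured by competitive HTRF after 30 min, 37 °C compound exposure of hGIP-R HEK-293 clones in IBMX (250 μM)-containing medium.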

The source of these data is patent US20260108546A1 (ELI LILLY AND COMPANY, priority 2024, published 2026).

As for `Cn1cc2cc(-c3ccc([C@H]4C[C@@]45CCN([C@H](Cc4cnn(C(F)F)c4)C(=O)NC(C)(C)Cn4nc(C(F)(F)F)cc4-c4ccn(C(F)F)c(=O)c4)C5=O)c(F)c3)cnc2n1` [Example 134, (R)-3-(1-(Difluoromethyl)-1H-pyrazol-4-yl)-N-(1-(5-(1-(difluoromethyl)-2-oxo-1,2-dihydropyridin-4-yl)-3-(trifluoromethyl)-1H-pyrazol-1-yl)-2-methylpropan-2-yl)-2-((1S,3R)-1-(2-fluoro-4-(2-methyl-2H-pyrazolo[3,4-b]pyridin-5-yl)phenyl)-4-oxo-5-azaspiro[2.4]heptan-5-yl)propanamide], the Emax was 57.4 ± 0.103% and the concentration for a half-maximal effect (EC50) was 7.63 nM.
Taken in the same sequence, the figures for `CN(C)Cc1ccc(-c2cc(C(F)(F)F)nn2CC(C)(C)NC(=O)[C@@H](Cc2cnn(C(F)F)c2)N2CC[C@@]3(C[C@@H]3c3ccc(-c4cnc5nn(C)cc5c4)cc3F)C2=O)cn1` [Example 135, (R)-3-(1-(Difluoromethyl)-1H-pyrazol-4-yl)-N-(1-(5-(6-((dimethylamino)methyl)pyridin-3-yl)-3-(trifluoromethyl)-1H-pyrazol-1-yl)-2-methylpropan-2-yl)-2-((1S,3R)-1-(2-fluoro-4-(2-methyl-2H-pyrazolo[3,4-b]pyridin-5-yl)phenyl)-4-oxo-5-azaspiro[2.4]heptan-5-yl)propanamide] were 48.5 ± 2.32% and 5.61 nM.
Taken in the same sequence, the figures for `[2H]C([2H])([2H])N(C(=O)[C@H]1C[C@@H]1c1ccc(-c2cnc3nn(C)cc3c2)nc1C(F)(F)F)[C@H](Cc1cnn(C(F)F)c1)C(=O)NC(C)(C)Cn1nc(C(F)(F)F)cc1-c1cc(F)c(=O)n(C)c1` [Example 136, (1S,2S)-N—((R)-3-(1-(Difluoromethyl)-1H-pyrazol-4-yl)-1-((1-(5-(5-fluoro-1-methyl-6-oxo-1,6-dihydropyridin-3-yl)-3-(trifluoromethyl)-1H-pyrazol-1-yl)-2-methylpropan-2-yl)amino)-1-oxopropan-2-yl)-N-(methyl-d3)-2-(6-(2-methyl-2H-pyrazolo[3,4-b]pyridin-5-yl)-2-(trifluoromethyl)pyridin-3-yl)cyclopropane-1-carboxamide] were 74.6 ± 6.02% and 10.8 nM.
On to `[2H]C([2H])([2H])N(C(=O)[C@H]1C[C@@H]1c1ccc(-c2cnc3nn(C)cc3c2)nc1C(F)F)[C@H](Cc1cnn(C(F)F)c1)C(=O)NC(C)(C)Cn1nc(C(F)(F)F)cc1-c1cc(F)c(=O)n(C)c1` [Example 137, (1S,2S)-N-((R)-3-(1-(Difluoromethyl)-1H-pyrazol-4-yl)-1-((1-(5-(5-fluoro-1-methyl-6-oxo-1,6-dihydropyridin-3-yl)-3-(trifluoromethyl)-1H-pyrazol-1-yl)-2-methylpropan-2-yl)amino)-1-oxopropan-2-yl)-2-(2-(difluoromethyl)-6-(2-methyl-2H-pyrazolo[3,4-b]pyridin-5-yl)pyridin-3-yl)-N-(methyl-d3)cyclopropane-1-carboxamide], for which the Emax is 61.7 ± 1.34% and the EC50 amounted to 12.3 nM.
Taken in the same sequence, the figures for `[2H]C([2H])([2H])N(C(=O)[C@H]1C[C@@H]1c1ccc(-c2cnc3nn(C)cc3c2)nc1C(F)F)[C@@H](Cc1cnn(C(F)F)c1)C(=O)NC(C)(C)Cn1nc(C(F)(F)F)cc1-c1cc(F)c(=O)n(C)c1` [Example 138, (1S,2S)-N-((S)-3-(1-(Difluoromethyl)-1H-pyrazol-4-yl)-1-((1-(5-(5-fluoro-1-methyl-6-oxo-1,6-dihydropyridin-3-yl)-3-(trifluoromethyl)-1H-pyrazol-1-yl)-2-methylpropan-2-yl)amino)-1-oxopropan-2-yl)-2-(2-(difluoromethyl)-6-(2-methyl-2H-pyrazolo[3,4-b]pyridin-5-yl)pyridin-3-yl)-N-(methyl-d3)cyclopropane-1-carboxamide] were 52.3% and 99.2 nM.
Take `[2H]C([2H])([2H])N(C(=O)[C@H]1C[C@@H]1c1cnc(-c2cnc3nn(C)cc3c2)nc1C(F)(F)F)[C@H](Cc1cnn(C(F)F)c1)C(=O)NC(C)(C)Cn1nc(C(F)(F)F)cc1-c1cc(F)c(=O)n(C)c1` [Example 139, (1S,2S)-N-((R)-3-(1-(Difluoromethyl)-1H-pyrazol-4-yl)-1-((1-(5-(5-fluoro-1-methyl-6-oxo-1,6-dihydropyridin-3-yl)-3-(trifluoromethyl)-1H-pyrazol-1-yl)-2-methylpropan-2-yl)amino)-1-oxopropan-2-yl)-N-(methyl-d3)-2-(2-(2-methyl-2H-pyrazolo[3,4-b]pyridin-5-yl)-4-(trifluoromethyl)pyrimidin-5-yl)cyclopropane-1-carboxamide]: the Emax came to 99.7 ± 3.49% and the EC50 is 24.8 nM.
Taken in the same sequence, the figures for `[2H]C([2H])([2H])n1cc(-c2cc(C(F)(F)F)nn2CC(C)(C)NC(=O)[C@@H](Cc2cnn(C(F)F)c2)N2CC[C@@]3(C[C@@H]3c3ccc(-c4cnc5nn(C)cc5c4)cc3)C2=O)cc(F)c1=O` [Example 141, (R)-3-(1-(Difluoromethyl)-1H-pyrazol-4-yl)-N-(1-(5-(5-fluoro-1-(methyl-d3)-6-oxo-1,6-dihydropyridin-3-yl)-3-(trifluoromethyl)-1H-pyrazol-1-yl)-2-methylpropan-2-yl)-2-((1R,3R)-1-(4-(2-methyl-2H-pyrazolo[3,4-b]pyridin-5-yl)phenyl)-4-oxo-5-azaspiro[2.4]heptan-5-yl)propanamide] were 60.9 ± 5.88% and 26.2 nM.
Consider `Cn1cc2cc(-c3ccc([C@H]4C[C@@]45CCN([C@H](Cc4cnn(C(F)F)c4)C(=O)NC(C)(C)Cn4nc(C(F)(F)F)cc4-c4cnc(N6CCC(=O)CC6)nc4)C5=O)cc3)cnc2n1` [Example 142, (R)-3-(1-(Difluoro-methyl)-1H-pyrazol-4-yl)-N-(2-methyl-1-(5-(2-(4-oxopiperidin-1-yl)pyrimidin-5-yl)-3-(trifluoromethyl)-1H-pyrazol-1-yl)propan-2-yl)-2-((1R,3R)-1-(4-(2-methyl-2H-pyrazolo[3,4-b]pyridin-5-yl)phenyl)-4-oxo-5-azaspiro[2.4]heptan-5-yl)propanamide], for which the Emax is 49.9 ± 1.38% and the EC50 was 102 nM.
Taken in the same sequence, the figures for `Cn1cc2cc(-c3ccc([C@H]4C[C@@]45CCN([C@H](Cc4cnn(C(F)F)c4)C(=O)NC(C)(C)Cn4nc(C(F)(F)F)cc4-c4ccc(C#N)nc4)C5=O)cc3)cnc2n1` [Example 143, (R)-N-(1-(5-(6-Cyanopyridin-3-yl)-3-(trifluoro-methyl)-1H-pyrazol-1-yl)-2-methylpropan-2-yl)-3-(1-(difluoro-methyl)-1H-pyrazol-4-yl)-2-((1R,3R)-1-(4-(2-methyl-2H-pyrazolo[3,4-b]pyridin-5-yl)phenyl)-4-oxo-5-azaspiro[2.4]heptan-5-yl)propanamide] were 72.8 ± 3.32% and 57.7 nM.
In the case of `Cc1cn2cc(-c3ccc([C@H]4C[C@@]45CCN([C@H](Cc4cnn(C(F)F)c4)C(=O)NC(C)(C)Cn4nc(C(F)(F)F)cc4-c4cc(F)c(=O)n(C)c4)C5=O)c(C)c3)cnc2n1` [Example 144, (R)-3-(1-(Difluoromethyl)-1H-pyrazol-4-yl)-N-(1-(5-(5-fluoro-1-methyl-6-oxo-1,6-dihydropyridin-3-yl)-3-(trifluoromethyl)-1H-pyrazol-1-yl)-2-methylpropan-2-yl)-2-((1R,3R)-1-(2-methyl-4-(2-methylimidazo[1,2-a]pyrimidin-6-yl)phenyl)-4-oxo-5-azaspiro[2.4]heptan-5-yl)propanamide], the Emax was determined as 63.3 ± 2.24% and the EC50 is 0.755 nM.
For `Cc1nc(-c2cnc3nc(C4CC4)cn3c2)ccc1[C@H]1C[C@@]12CCN([C@H](Cc1cnn(C(F)F)c1)C(=O)NC(C)(C)Cn1nc(C(F)(F)F)cc1-c1ccn(C3CC3)c(=O)c1)C2=O` [Example 145, (R)—N-(1-(5-(1-Cyclopropyl-2-oxo-1,2-dihydropyridin-4-yl)-3-(trifluoromethyl)-1H-pyrazol-1-yl)-2-methylpropan-2-yl)-2-((1R,3R)-1-(6-(2-cyclopropylimidazo[1,2-a]pyrimidin-6-yl)-2-methylpyridin-3-yl)-4-oxo-5-azaspiro[2.4]heptan-5-yl)-3-(1-(difluoromethyl)-1H-pyrazol-4-yl)propanamide] the same measures were 96.6 ± 2.37% and 0.727 nM.
Taken in the same sequence, the figures for `Cc1ncc(-c2cc(C(F)(F)F)nn2CC(C)(C)NC(=O)[C@@H](Cc2cnn(C(F)F)c2)NC(=O)[C@H]2C[C@@H]2c2ccc(-c3cnc4nn(C)cc4c3)nc2C(F)(F)F)cn1` [Example 147, (1S,2S)-N—((R)-3-(1-(Difluoromethyl)-1H-pyrazol-4-yl)-1-((2-methyl-1-(5-(2-methylpyrimidin-5-yl)-3-(trifluoromethyl)-1H-pyrazol-1-yl)propan-2-yl)amino)-1-oxopropan-2-yl)-2-(6-(2-methyl-2H-pyrazolo[3,4-b]pyridin-5-yl)-2-(trifluoromethyl)pyridin-3-yl)cyclopropane-1-carboxamide] were 86.1 ± 9% and 17.2 nM.
